Experimental data reported in ChEMBL document CHEMBL5365519, “Design and Characterization of 1,3-Dihydro-2H-benzo[d]azepin-2-ones as Rule-of-5 Compliant Bivalent BET Inhibitors” (ACS Med Chem Lett, 2023).
Values after ≈ are worked out from the molar mass of the structure shown.

Experiments:
[1] = Lipophilicity, logD of compound at pH 7.4 by HPLC analysis; type: physicochemical; settings: buffer
[2] = molecular target: T1, Bromodomain-containing protein 4 (Homo sapiens, UniProt O60885); experiment: Inhibition of BRD4 BD2 (unknown origin) by TR-FRET assay
[3] = Solubility of compound in simulated lung fluid at pH 6.9; type: physicochemical
[4] = molecular target: T1, Bromodomain-containing protein 4; experiment: Inhibition of histone binding to BRD4 (unknown origin) expressed in HEK293 cells using histone H3.3 as substrate incubated for 18 to 24 hrs by nano-BRET analysis; type: cell-based
[5] = Antiproliferative activity against human NMC 11060 cell assessed as inhibition of cell growth incubated for 72 hrs by cell-titer glo assay; type: functional, cell-based; settings: NMC 11060, 72 h
[6] = molecular target: T1, Bromodomain-containing protein 4; experiment: Inhibition of BRD4 BD1 (unknown origin) by TR-FRET assay
HL-60 = experiment: Antiproliferative activity against human HL-60 cells assessed as inhibition of cell growth incubated for 72 hrs by cell-titer glo assay; type: functional, cell-based; settings: HL-60, 72 h
C-C motif chemokine 2 [7] = molecular target: T2, C-C motif chemokine 2 (Homo sapiens, UniProt P13500); experiment: Inhibition of MCP-1 in LPS-stimulated human whole blood pretreated with compound for 30 mins followed by LPS-stimulation and measured after 10 mins by microplate analysis; type: tissue-based
T2 sequence (P13500 whole entry): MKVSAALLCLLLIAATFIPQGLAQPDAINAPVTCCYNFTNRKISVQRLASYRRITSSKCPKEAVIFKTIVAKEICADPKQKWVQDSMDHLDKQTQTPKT

C-C motif chemokine 2 [8] = molecular target: T2, C-C motif chemokine 2; experiment: Inhibition of MCP-1 in LPS-stimulated human PBMC cells pretreated with compound for 30 mins followed by LPS-stimulation and measured after 10 mins by microplate analysis; type: cell-based
MV4-11 = experiment: Antiproliferative activity against human MV4-11 cells assessed as inhibition of cell growth incubated for 72 hrs by cell-titer glo assay; type: functional, cell-based; settings: MV4-11, 72 h
[9] = molecular target: T1, Bromodomain-containing protein 4; experiment: Inhibition of halo-tagged BRD4 (unknown origin) expressed in HEK293 cells incubated for 4 hrs by biosensor assay; type: cell-based

SMILES	logD [1]	IC50 [2] [nM]	solubility [3] [µg/mL]	IC50 [4] [nM]	IC50 [5] [nM]	IC50 [6] [nM]	IC50 (HL-60) [nM]	IC50 (C-C motif chemokine 2 [7]) [nM]	IC50 (C-C motif chemokine 2 [8]) [nM]	IC50 (MV4-11) [nM]	EC50 [9] [nM]	pIC50 (C-C motif chemokine 2 [8]; pbmc)
C[C@H]1C(=O)N(C)C=Cc2cc(OCCCCOc3ccc4c(c3)C=CN(C)C(=O)[C@@H]4C)ccc21	7.1	6.31	2 (≈ 4.34 µM)	0.316	0.794	3.16	0.398	5.01	0.0398	0.501	1.58	
COc1cc2c(cc1OC)[C@@H](C)C(=O)N(C)C=C2								1000	50.1			
C[C@H]1C(=O)N(C)C=Cc2cc(OCCCCCCCOc3ccc4c(c3)C=CN(C)C(=O)[C@@H]4C)ccc21	8.5	39.8		1		79.4		79.4	< 2		3.98	
COCC(COC)n1c(-c2cc(C)c(=O)n(C)c2)nc2cc(N3CCOCC3)ccc21								25.1	7.94			
COc1nnc2ccc(N3CCC(c4ccc(OCCN5CCN(C)C(=O)[C@H]5C)cc4)CC3)nn12 [AZD-5153]		3160		15.8		398		15.8	3.16		15.8	
C[C@H]1C(=O)N(C)C=Cc2cc(CN3CCN(Cc4ccc5c(c4)C=CN(C)C(=O)[C@@H]5C)CC3)ccc21	5.43	25.1	465 (≈ 959 µM)	0.501		15.8		6.31	< 0.2		2	
C[C@H]1C(=O)N(C)C=Cc2cc(OCCCCCOc3ccc4c(c3)C=CN(C)C(=O)[C@@H]4C)ccc21	7.4	20	< 1	0.631		39.8		12.6	< 2		7.94	
COCc1nc2cnc3cc(-c4c(C)noc4C)c(OC[C@H]4CCNC4)cc3c2n1[C@H](C)c1ccccc1 [GSK778]								158				
C[C@H]1C(=O)N(C)C=Cc2cc(OCCCOc3ccc4c(c3)C=CN(C)C(=O)[C@@H]4C)ccc21	6.7	39.8	< 1	15.8		100		50.1	< 2		2.51	
Cc1sc2c(c1C)C(c1ccc(Cl)cc1)=N[C@@H](CC(=O)OC(C)(C)C)c1nnc(C)n1-2								631	6.31			
C[C@@H]1C(=O)N(C)CCN1CCOc1ccc(C2CCN(c3ccc4nncn4n3)CC2)cc1		39800		398		25100		2000	200		1000	
C[C@H]1C(=O)N(C)C=Cc2cc(OCCOc3ccc4c(c3)C=CN(C)C(=O)[C@@H]4C)ccc21	5.8	31.6		0.631		63.1		126	0.251		1.26	
CC1C(=O)N(C)C=Cc2ccc(OCCCCCCOc3ccc4c(c3)C(C)C(=O)N(C)C=C4)cc21 (configuration not stated)		≥ 1580		> 1000		3160		3980			1000	
CC1C(=O)N(C)C=Cc2ccc(OCCCCCOc3ccc4c(c3)C(C)C(=O)N(C)C=C4)cc21 (configuration not stated)	7.5	3980				631		15800				
COc1cc2c(cc1-c1c(C)noc1C)ncc1[nH]c(=O)n([C@H](C)c3ccccn3)c12					631		126	200	39.8			
CC(=O)Nc1c(F)cc(C(=O)N[C@H]2CC[C@H](O)CC2)cc1O[C@@H](C)c1ccccc1 [GSK046]												7.5
